Data taken from US9005677B2, “Autophagy enhancer for treatment of neurodegenerative diseases” (Macau University of Science and Technology, priority 2013, dated 2015).

Assays:
[1] = system: EGFP-HDQ74 transfected Atg7 wild-type mouse embryonic fibroblasts; experiment: Mutant huntingtin aggregates and LC3 conversion in Atg7 wild-type MEFs; type: cell-based
Experimental: (§1) Quantification of mutant huntingtin aggregates in PC12, Atg7 wild type and deficient MEFs. In brief, both EGFP-HDQ74 transfected PC12, Atg7 wild-type and deficient mouse embryonic fibroblasts (MEFs) grown on coverslips in a 6-well plate were treated with indicated concentrations of Onjisaponin B. The cells were then fixed in 4% paraformaldehyde for 20 minutes at room temperature and then rinsed with PBS. Slides were mounted with FluorSave™ mounting media (Calbiochem, San Diego, Calif.) and examined by fluorescence microscopy. The number of cells with GFP-aggregates formation was examined under the Nikon ECLIPSE 80i microscope. Representative images were captured with CCD digital camera Spot RT3™ (Diagnostic Instruments, Inc., Melville, N.Y.). To quantify the clearance of mutant huntingtin, the percentage of cells with GFP-aggregates was calculated by counting the number of the cells with punctate GFP-LC3 fluorescence in GFP-positive cells. A minimum of 150 cells from 3 randomly selected fields was scored.
Detection of autophagic marker protein LC3 conversion and HTT 74 mutant aggregates. After drug treatments for Atg7 wild type and deficient MEFs, cells were harvested and lysed in RIPA buffer (Cell Signaling Technologies Inc., Beverly, Mass.). The cell lysates were then resolved by SDS-PAGE. […]

[2] = system: mutant huntingtin EGFP-HDQ74 in PC 12 cells; experiment: Removal of mutant huntingtin, immunoblotting against EGFP; type: cell-based, rat; details: 24 hours treatment
Experimental: Removal of mutant huntingtin and mutant α-synuclein. PC 12 cells were transfected transiently with EGFP-HDQ74 plasmids for 24 hours using Lipofectamine Plus LTX reagent (Invitrogen) according to the manufacturer's protocol. The transfected cells were then treated with Onjisaponin B for 24 hours. The removal of mutant huntingtin, EGFP-HDQ74, was then quantitated by immunoblotting with antibody against EGFP. To measure the clearance of α-synuclein in cellular model, the overexpression of mutant A53T α-synuclein was first induced by the addition of doxycycline (1 μg/ml) (Sigma) for 24 hours, by using the doxycycline inducible PC 12 cell line transfected with A53T α-synuclein plasmid. The expression of mutant A53T α-synuclein was then switched off by removing doxycycline from medium. Cells were then incubated with Onjisaponin B for a further 24 hours. The clearance of mutant α-synuclein was then measured by immunoblotting with antibody against myc tag.

[3] = system: EGFP-HDQ74 inclusions in PC12 cells; experiment: Mutant huntingtin aggregates in PC12, fluorescence microscopy; type: cell-based, rat; details: immunocytochemistry
Experimental: as §1

[4] = system: GFP-LC3 puncta formation in PC12 cells; experiment: Quantification of autophagy GFP-LC3 puncta; type: cell-based, rat; details: fluorescent microscopy
Experimental: Quantification of autophagy GFP-LC3 Puncta. GFP-LC3 puncta formation was quantified as described previously. In brief, cells grown on coverslips in a 6-well plate were fixed in 4% paraformaldehyde for 20 minutes at room temperature and then rinsed with PBS. Slides were mounted with FluorSave™ mounting media (Calbiochem, San Diego, Calif.) and examined by fluorescence microscopy. The number of GFP-positive cells with GFP-LC3 puncta formation was examined under the Nikon ECLIPSE 80i microscope. Representative images were captured with CCD digital camera Spot RT3™ (Diagnostic Instruments, Inc., Melville, N.Y.). To quantify autophagy, the percentage of cells with punctate GFP-LC3 fluorescence was calculated by counting the number of the cells with punctate GFP-LC3 fluorescence in GFP-positive cells. A minimum of 150 cells from 3 randomly selected fields was scored.

[5] = system: PC12 cells expressing GFP-LC3; experiment: GFP-LC3 puncta in the presence of specific inhibitors; type: cell-based, rat; details: 12 hours
Experimental: Quantification of Onjisaponin B-mediated autophagy in the presence of specific inhibitors. GFP-LC3 puncta formation was quantified as described previously. In brief, PC12 cells expressing GFP-LC3 were treated with Onjisaponin B (Onji, 25 μM) in the presence of AMPK inhibitor (compound C) (CC, 5 μM) or 3-Methyladenine (3-MA, 5 mM) for 12 hours. The cells were then fixed in 4% paraformaldehyde for 20 minutes at room temperature and then rinsed with PBS. Slides were mounted with FluorSave™ mounting media (Calbiochem) and examined by fluorescence microscopy. To quantify for autophagy, the percentage of cells with punctate GFP-LC3 fluorescence was calculated by counting the number of the cells with punctate GFP-LC3 fluorescence in GFP-positive cells. A minimum of 150 cells from 3 randomly selected fields was scored.

[6] = molecular target: T1, α-synuclein oligomerization in HeLa cells transfected with GNS and SGC (Homo sapiens, UniProt P37840); experiment: Bimolecular fluorescence complementation (BiFC) assay; type: cell-based; details: 24 hours at 30° C.
T1 construct: expressed in transfected cells; host or cells: HeLa cells
Experimental: Bimolecular fluorescence complementation (BiFC) assay. In brief, HeLa cells transfected with both GFP-N terminal-α-synuclein (GNS) and α-synuclein-GFP-C terminal (SGC) plasmids were incubated at 37° C. for 4 hours. Then, the transfected cells were incubated with different concentrations of Radix Polygalae ethanol extract or Onjisaponin B for a further 24 hours at 30° C.. Fluorescent signals upon complete GFP fluorophore reconstitution in cells were then detected by flow analysis.
Results: By using the bimolecular fluorescence complementation (BiFC) assay, the oligomerization of α-synuclein in living cells can be directly quantified. In brief, α-synuclein proteins fused with two different non-fluorescent GFP terminal fragments, (i) GFP-N terminal-α-synuclein (GNS) or (ii) α-synuclein-GFP-C terminal (SGC) respectively were used. Upon oligomerization of α-synuclein, the two non-fluorescent fractions of GFP will therefore reconstitute the complete GFP fluorophore and transmit GFP fluorescent signal within cells. This signal in turn can be quantified by flow cytometry analysis.

[7] = system: Doxycycline-inducible PC-12 cell lines transfected with mutant A53T α-synuclein; experiment: Cell death by flow cytometry (Annexin V / propidium iodide) in PC-12 cells expressing mutant A53T α-synuclein; type: cell-based, rat; details: 50 μM, 24 h after doxycycline removal
Experimental: Flow cytometry analysis: Doxycycline-inducible PC-12 cell lines transfected with mutant A53T α-synuclein were induced with doxycycline (1 μg/mL) for 24 h and the expression of transgene was then switched off by the removal of doxycycline. Cells were then treated with Onjisaponin B (50 μM) for a further 24 h after doxycycline removal. The control group (Ctrl) contained cells without the addition of doxycycline, while the Dox group contained cells with the removal of doxycycline (1 μg/mL) after 24 h of induction but without treatment of Onjisaponin B. Cell death was then assessed by flow cytometry using Annexin V staining kit and Propidium iodide staining. Data from the bar chart represented the means±S.D. of three independent experiments. **p<0.01; *p<0.05. Flow cytometry was carried out using a FACSCalibur flow cytometer. Data acquisition and analysis were performed with CellQuest.

## COc1ccc(/C=C/C(=O)O[C@@H]2[C@H](O[C@@H]3O[C@@H](C)[C@H](O)[C@@H](O)[C@H]3O)[C@@H](O[C@@H]3O[C@@H](C)[C@H](O[C@@H]4OC[C@@H](O[C@@H]5O[C@H](CO)[C@H](O)[C@H](O)[C@H]5O)[C@H](O)[C@H]4O)[C@@H](O)[C@H]3O)[C@H](OC(=O)[C@]34CCC(C)(C)C[C@H]3C3=CC[C@@H]5[C@@]6(C)C[C@H](O)[C@H](O[C@@H]7O[C@H](CO)[C@@H](O)[C@H](O)[C@H]7O)[C@@](C)(C(=O)O)[C@@H]6CC[C@@]5(C)[C@]3(CO)CC4)O[C@@H]2C)cc1 [Onjisaponin B]
[1]
  Clearance of EGFP-HDQ74 inclusions in autophagy-wild type cells: enhanced the clearance of EGFP-HDQ74 inclusions
[1]; western blot
  LC3II formation in wild type Atg7 cells transfected with EGFP-HDQ74: LC3II formation in wild type Atg7 cells
[2]
  Clearance of overexpressed EGFP-tagged mutant huntingtin with 74 CAG repeats: enhanced the clearance
[3]
  Clearance of inclusions formed by EGFP-HDQ74 in PC12 cells: enhanced the clearance of inclusions formed by EGFP-HDQ74
[4]
  GFP-LC3 puncta formation: increased the formation of GFP-LC3 puncta formation in a dose dependent manner
[5]; Onjisaponin B 25 μM + 3-MA 5 mM
  Onjisaponin B-induced GFP-LC3 puncta formation in the presence of 3-Methyladenine: significant reduction
[5]; Onjisaponin B 25 μM + compound C 5 μM
  Onjisaponin B-induced GFP-LC3 puncta formation in the presence of AMPK inhibitor (compound C): significant reduction
[6]
  Oligomerization of α-synuclein (GFP fluorescent signal, flow analysis): inhibit the oligomerization of α-synuclein
[7]
  Toxicity in PC-12 cells expressing mutant A53T α-synuclein (cell death, flow cytometry): reduced toxicity
